As usually defined, the Papp A→B is the apparent permeability from the apical to the basolateral side of a cell layer.

Test system in the first series: not listed separately
Kind of series: MDR1-MDCKII permeability assay Papp(AB). In kind it is in vitro ADME. Particulars: dog, MDCK-MDR1, parent compounds, A to B, 60-minute incubation at 37° C., pH 7.4. How it is done:
(§1) MDR1-MDCKII Permeability Assay Papp(AB)
(§2) MDR1-MDCKII cells (obtained from Piet Borst at the Netherlands Cancer Institute) were seeded onto […] (PET) in 96-well BD insert systems at 2.5×10^5 cells/mL until to 4-7 days for confluent cell monolayer formation.
(§3) Test compounds were diluted with the transport buffer (HBSS with 10 mM HEPES, added 1% BSA, pH 7.4) from DMSO stock solution to a concentration of 0.5 μM (DMSO: 0.4%) and applied to the apical or basolateral side of the cell monolayer. Permeation of the test compounds from A to B direction or B to A direction was determined in triplicate over a 60-minute incubation at 37° C. and 5% CO2 with a relative humidity of 95%. In addition, the efflux ratio of each compound was also determined. Test and reference compounds were quantified by LC/MS/MS analysis based on the peak area ratio of analyte/IS.
(§4) Reference compounds: Fenoterol (conc: 2 μM) was used as low permeability marker and Propranolol (conc: 2 μM) was used as high permeability marker in A to B Permeability, furthermore was bi-directional permeability of a P-glycoprotein substrate (digoxin) included.
(§5) The apparent permeability coefficient Papp (cm/s) was calculated using the equation: Papp=(dCr/dt)×Vr/(A×C0) (1) Where dCr/dt is the cumulative concentration of compound in the receiver chamber as a function of time (μM/s); Vr is the solution volume in the receiver chamber (0.05 mL on the apical side; 0.25 mL on the basolateral side); A is the surface area for the transport, i.e. 0.0804 cm^2 for the area of the monolayer; C0 is the initial concentration in the donor chamber (μM).
(§6) The efflux was calculated using the equation: Efflux ratio=Papp(BA)/Papp(AB) (2)
(§7) The mass balance (Recovery) was calculated. The mass balance is defined as: the sum of the compound recovered from the acceptor chamber and the compound remaining in the donor chamber at the end of the experiment, divided by the initial donor amount. The mass balance should be as high as possible. Criterion: Recovery <50% is insufficient.
(§8) To evaluate the integrity of the cell monolayer, Lucifer Yellow permeability was measured in one direction (A to B). The percentage of Lucifer Yellow was calculated in control wells as an estimation of the overall cell membrane integrity. The wells are considered fully acceptable if % Lucifer Yellow is less than 2%.
(§9) The experiments for the prodrugs were the same as for the parent compounds exemplified in Table 3a.
Take `N[C@H](CNC(=O)c1cc2nccc(C(F)(F)F)c2s1)C(=O)O` [Compound 1f, (R)-2-amino-3-(7-(trifluoromethyl)thieno[3,2-b]pyridine-2-carboxamido) propanoic acid]: the apical-to-basolateral permeability (Papp A→B) at 60 min, 0.5 µM worked out at 1.03 ×10⁻⁶ cm/s.

As to `Cc1cnc2cc(C(=O)NC[C@@H](N)C(=O)O)sc2c1C` [Compound 1l, (R)-2-amino-3-(6,7-dimethylthieno[3,2-b]pyridine-2-carboxamido)propanoic acid], the apparent permeability from apical to basolateral (Papp A→B) at 60 min, 0.5 µM was 0.47 ×10⁻⁶ cm/s.

Still in this series, the particulars now being: dog, MDCK-MDR1, prodrug compounds, A to B, 60-minute incubation at 37° C., pH 7.4.
Turning to `COC(=O)[C@H](N)CNC(=O)c1cc2nccc(C(F)F)c2s1` [Compound 2a, Methyl (R)-2-amino-3-(7-(difluoromethyl)thieno[3,2-b]pyridine-2-carboxamido)propanoate], the Papp A→B at 60 min, 0.5 µM came to 8.36 ×10⁻⁶ cm/s.

For `COC(=O)[C@H](N)CNC(=O)c1cc2nccc(C3CC3)c2s1` [Compound 2b, Methyl (R)-2-amino-3-(7-cyclopropylthieno[3,2-b]pyridine-2-carboxamido) propanoate], the Papp A→B at 60 min, 0.5 µM came to 9.25 ×10⁻⁶ cm/s.

As to `CCOC(=O)[C@H](N)CNC(=O)c1cc2nccc(C)c2s1` [Compound 2d, Ethyl (R)-2-amino-3-(7-methylthieno[3,2-b]pyridine-2-carboxamido)propanoate], the Papp A→B at 60 min, 0.5 µM was 15.2 ×10⁻⁶ cm/s.

With `CCCOC(=O)[C@H](N)CNC(=O)c1cc2nccc(C)c2s1` [Compound 2e, Propyl (R)-2-amino-3-(7-methylthieno[3,2-b]pyridine-2-carboxamido)propanoate], the apparent permeability from apical to basolateral (Papp A→B) at 60 min, 0.5 µM is 10.3 ×10⁻⁶ cm/s.

Turning to `Cc1ccnc2cc(C(=O)NC[C@@H](N)C(=O)OC(C)C)sc12` [Compound 2f, Isopropyl (R)-2-amino-3-(7-methylthieno[3,2-b]pyridine-2-carboxamido)propanoate], the Papp A→B at 60 min, 0.5 µM amounted to 18.4 ×10⁻⁶ cm/s.

Turning to `Cc1ccnc2cc(C(=O)NC[C@@H](N)C(=O)OC3CC3)sc12` [Compound 2g, Cyclopropyl (R)-2-amino-3-(7-methylthieno[3,2-b]pyridine-2-carboxamido)propanoate], the Papp A→B at 60 min, 0.5 µM was found to be 7.11 ×10⁻⁶ cm/s.

For `CCCCOC(=O)[C@H](N)CNC(=O)c1cc2nccc(C)c2s1` [Compound 2h, Butyl (R)-2-amino-3-(7-methylthieno[3,2-b]pyridine-2-carboxamido)propanoate], the apparent permeability from apical to basolateral (Papp A→B) at 60 min, 0.5 µM was 6.11 ×10⁻⁶ cm/s.

As to `Cc1ccnc2cc(C(=O)NC[C@@H](N)C(=O)OCC(C)C)sc12` [Compound 2i, Isobutyl (R)-2-amino-3-(7-methylthieno[3,2-b]pyridine-2-carboxamido)propanoate], the apparent permeability from apical to basolateral (Papp A→B) at 60 min, 0.5 µM turned out to be 8.19 ×10⁻⁶ cm/s.

Regarding `Cc1ccnc2cc(C(=O)NC[C@@H](N)C(=O)OCC3CC3)sc12` [Compound 2j, Cyclopropylmethyl (R)-2-amino-3-(7-methylthieno[3,2-b]pyridine-2-carboxamido)propanoate], the Papp A→B at 60 min, 0.5 µM turned out to be 11.9 ×10⁻⁶ cm/s.

Turning to `COCCOC(=O)[C@H](N)CNC(=O)c1cc2nccc(C)c2s1` [Compound 2k, 2-Methoxyethyl (R)-2-amino-3-(7-methylthieno[3,2-b]pyridine-2-carboxamido)propanoate], the Papp A→B at 60 min, 0.5 µM stood at 4.77 ×10⁻⁶ cm/s.

For `Cc1ccnc2cc(C(=O)NC[C@@H](N)C(=O)OCCC(C)C)sc12` [Compound 2l, Isopentyl (R)-2-amino-3-(7-methylthieno[3,2-b]pyridine-2-carboxamido)propanoate], the Papp A→B at 60 min, 0.5 µM came to 6.5 ×10⁻⁶ cm/s.

`Cc1ccnc2cc(C(=O)NC[C@@H](N)C(=O)OCc3ccccc3)sc12` [Compound 2m, Benzyl (R)-2-amino-3-(7-methylthieno[3,2-b]pyridine-2-carboxamido)propanoate]: the apical-to-basolateral permeability (Papp A→B) at 60 min, 0.5 µM worked out at 8.68 ×10⁻⁶ cm/s.

As for `Cc1ccnc2cc(C(=O)NC[C@@H](N)C(=O)OC3CCCCC3)sc12` [Compound 2n, Cyclohexyl (R)-2-amino-3-(7-methylthieno[3,2-b]pyridine-2-carboxamido)propanoate], the apparent permeability from apical to basolateral (Papp A→B) at 60 min, 0.5 µM came out at 5.86 ×10⁻⁶ cm/s.

Take `Cc1ccnc2cc(C(=O)NC[C@@H](N)C(=O)OCC(=O)N3CCCC3)sc12` [Compound 2p, 2-Oxo-2-(pyrrolidin-1-yl)ethyl (R)-2-amino-3-(7-methylthieno[3,2-b]pyridine-2-carboxamido)propanoate]: the Papp A→B at 60 min, 0.5 µM is 0.81 ×10⁻⁶ cm/s.

With `CCc1ccccc1-c1ccnc2cc(C(=O)NC[C@@H](N)C(=O)OC)sc12` [Compound 2q, Methyl (R)-2-amino-3-(7-(2-ethylphenyl)thieno[3,2-b]pyridine-2-carboxamido)propanoate], the Papp A→B at 60 min, 0.5 µM is 1.97 ×10⁻⁶ cm/s.

`COC(=O)[C@H](N)CNC(=O)c1cc2nccc(OC)c2s1` [Compound 2r, Methyl (R)-2-amino-3-(7-methoxythieno[3,2-b]pyridine-2-carboxamido)propanoate]: the Papp A→B at 60 min, 0.5 µM stood at 5.54 ×10⁻⁶ cm/s.

As to `COC(=O)[C@H](N)CNC(=O)c1cc2nccc(C(F)(F)F)c2s1` [Compound 2s, Methyl (R)-2-amino-3-(7-(trifluoromethyl)thieno[3,2-b]pyridine-2-carboxamido)propanoate], the Papp A→B at 60 min, 0.5 µM was determined as 12.3 ×10⁻⁶ cm/s.

On to `COC(=O)[C@H](N)CNC(=O)c1cc2nccc(OC(C)C)c2s1` [Compound 2t, Methyl (R)-2-amino-3-(7-isopropoxythieno[3,2-b]pyridine-2-carboxamido)propanoate], for which the Papp A→B at 60 min, 0.5 µM turned out to be 4.81 ×10⁻⁶ cm/s.

Turning to `COC(=O)[C@H](N)CNC(=O)c1cc2nccc(CO)c2s1` [Compound 2v, Methyl (R)-2-amino-3-(7-(hydroxymethyl)thieno[3,2-b]pyridine-2-carboxamido) propanoate], the apical-to-basolateral permeability (Papp A→B) at 60 min, 0.5 µM is 1.16 ×10⁻⁶ cm/s.

Regarding `COC(=O)[C@H](N)CNC(=O)c1cc2nccc(CF)c2s1` [Compound 2w, Methyl (R)-2-amino-3-(7-(fluoromethyl)thieno[3,2-b]pyridine-2-carboxamido)propanoate], the Papp A→B at 60 min, 0.5 µM is 4.19 ×10⁻⁶ cm/s.

In the case of `COC(=O)[C@H](N)CNC(=O)c1cc2ncc(F)c(C)c2s1` [Compound 2x, Methyl (R)-2-amino-3-(6-fluoro-7-methyl-thieno[3,2-b]pyridine-2-carboxamido)propanoate], the Papp A→B at 60 min, 0.5 µM came out at 15.5 ×10⁻⁶ cm/s.

`COC(=O)[C@H](N)CNC(=O)c1cc2ncc(C)c(C)c2s1` [Compound 2y, Methyl (R)-2-amino-3-(6,7-dimethylthieno[3,2-b]pyridine-2-carboxamido)propanoate]: the apical-to-basolateral permeability (Papp A→B) at 60 min, 0.5 µM is 7.08 ×10⁻⁶ cm/s.

For the next series, the system named is MDR1-MDCKII cells. The series can be described thus: MDR1-MDCKII permeability assay Papp(AB). In kind it is in vitro ADME. Particulars: parent compounds; 0.5 μM; A to B; 60-minute incubation at 37° C.; pH 7.4. As for the experimental part: as §1, §2, §3, §4, §5, §6, §7, §8, §9
`N[C@H](CNC(=O)c1cc2nccc(C(F)F)c2s1)C(=O)O` [Compound 1a, (R)-2-amino-3-(7-(difluoromethyl)thieno[3,2-b]pyridine-2-carboxamido)propanoic acid]: the “Permeability Papp (AB)” value is “BLOQ”.

Regarding `N[C@H](CNC(=O)c1cc2nccc(C3CC3)c2s1)C(=O)O` [Compound 1b, (R)-2-amino-3-(7-cyclopropylthieno[3,2-b]pyridine-2-carboxamido) propanoic acid], the “Permeability Papp (AB)” value is “BLOQ”.

Consider `Cc1ccnc2cc(C(=O)NC[C@@H](N)C(=O)O)sc12` [Compound 1c, (R)-2-amino-3-(7-methylthieno[3,2-b]pyridine-2-carboxamido)propanoic acid], for which the “Permeability Papp (AB)” value is given as “BLOQ”.

On to `CCc1ccccc1-c1ccnc2cc(C(=O)NC[C@@H](N)C(=O)O)sc12` [Compound 1d, (R)-2-amino-3-(7-(2-ethylphenyl)thieno[3,2-b]pyridine-2-carboxamido)propanoic acid], for which the “Permeability Papp (AB)” value was “BLOQ”.

Take `COc1ccnc2cc(C(=O)NC[C@@H](N)C(=O)O)sc12` [Compound 1e, (R)-2-amino-3-(7-methoxythieno[3,2-b]pyridine-2-carboxamido)propanoic acid]: the “Permeability Papp (AB)” value is on record as “BLOQ”.

Regarding `CC(C)Oc1ccnc2cc(C(=O)NC[C@@H](N)C(=O)O)sc12` [Compound 1g, (R)-2-amino-3-(7-isopropoxythieno[3,2-b]pyridine-2-carboxamido)propanoic acid], the “Permeability Papp (AB)” value was “BLOQ”.

Test system in the next series: not listed separately
The series can be described thus: In vivo exposure (plasma and brain) after intravenous bolus injection. The following applies: compound quantified 1c; dose 2 mg/kg intravenous bolus; male Sprague Dawley rats.
Procedure: Brain disposition of test compound was evaluated in male Sprague Dawley rats (standard body weight range). Briefly, discrete (nominal dose: 2 mg/kg, 2 ml/kg) or cassetted (nominal dose: 1 mg/kg/compound, 2 ml/kg) test compounds were administered by intravenous bolus injection (formulated in 10% hydroxypropyl-β-cyclodextrin or 10-20% Captisol, pH=3).
Serial blood samples were collected from a lateral tail vein at designated time points (n=3 per time point) then rats were put under deep isofluorane induced anaesthesia prior to removal of brains (n=3 per time point). Blood samples were stabilized against further metabolism ex vivo by addition of an esterase inhibitor (100 μM diisopropyl fluorophosphate). […]
Seven calibration standards and three QC samples were prepared in plasma and brain homogenate, respectively, in the concentration range 10-10000 ng/mL. […] Study samples with expected concentration above upper limit of quantification were diluted with blank matrix. […]
Samples were analyzed using an AB Sciex API4000 triple quadrupole (TQ) mass spectrometer operated in positive and negative electrospray ionization and MS/MS mode (multiple reaction monitoring, MRM). […] Quantification was performed by linear regression, 1/x2 weighting.
Concentrations of prodrug and drug in plasma and brain were quantified against matrix matched calibration standards.
In the case of `Cc1ccnc2cc(C(=O)NC[C@@H](N)C(=O)OC(C)C)sc12` [Compound 2f, Isopropyl (R)-2-amino-3-(7-methylthieno[3,2-b]pyridine-2-carboxamido)propanoate], the “Total Brain concentration (ng/mL) 30 min post dose” value is listed as “BLOQ”.

The series is the same for the next values; noted with them: compound quantified 1h; dose 2 mg/kg intravenous bolus; male Sprague Dawley rats.
Take `COC(=O)[C@H](N)CNC(=O)c1cc2nccc(Br)c2s1` [Compound 2u, Methyl (R)-2-amino-3-(7-bromothieno[3,2-b]pyridine-2-carboxamido)propanoate]: the “Total Brain concentration (ng/mL) 30 min post dose” value is “BLOQ”.

The values are drawn from US11358971B2, “Prodrugs of modulators of the NMDA receptor” (H. Lundbeck A/S, priority 2019, dated 2022).
